# From ChEMBL document CHEMBL3885861, “Open TG-GATES”
# Organism: Rattus norvegicus
# Test: Open TG-GATES - Regimen: Daily Repeat
# Format: toxicity, organism-based, Sprague-Dawley
# Design: regimen Daily Repeat, gender Male, age 6 weeks
# Details: in vivo, po, 10 mg/kg, route gavage, dose level Low; for APTT / Bas / Eos / Fbg / Hb / Ht / Lym / MCH / MCHC / MCV / Mono / Neu / PT / Plat / RBC / Ret / WBC: tissue Blood; for KIDNEY_L / KIDNEY_R / KIDNEY_TOTAL: tissue Kidney; for LIVER: tissue Liver; for A/G / ALP / ALT / AST / BUN / CRE / Ca / Cl / DBIL / GLC / IP / K / LDH / Na / PL / RALB / TBIL / TC / TG / TP / gamma-GTP: tissue Plasma
smiles,measurement,setting,value
CC1=C(/C=C/C(C)=C/C=C/C(C)=C/CO)C(C)(C)CCC1 [RETINOL],TERMINAL_BW,"72 h, time 3 day",230.9 g
same,APTT,"72 h, time 3 day",22.3 s
same,Bas,"72 h, time 3 day",0%
same,Eos,"72 h, time 3 day",0.8%
same,Fbg,"72 h, time 3 day",311.2 mg/dL
same,Hb,"72 h, time 3 day",13.4 g/dL
same,Ht,"72 h, time 3 day",38.9%
same,Lym,"72 h, time 3 day",80.8%
same,MCH,"72 h, time 3 day",21 pg
same,MCHC,"72 h, time 3 day",34.4%
same,MCV,"72 h, time 3 day",61.2 fL
same,Mono,"72 h, time 3 day",2.6%
same,Neu,"72 h, time 3 day",15.4%
same,PT,"72 h, time 3 day",16.8 s
same,Plat,"72 h, time 3 day",123.7 x10_4/uL
same,RBC,"72 h, time 3 day",636 x10_4/ul
same,Ret,"72 h, time 3 day",6.2%
same,WBC,"72 h, time 3 day",97.2 x10_2/uL
same,KIDNEY_L,"72 h, time 3 day",1 g
same,KIDNEY_R,"72 h, time 3 day",1 g
same,KIDNEY_TOTAL,"72 h, time 3 day",2 g
same,LIVER,"72 h, time 3 day",10.7 g
same,A/G,"72 h, time 3 day",1.3
same,ALP,"72 h, time 3 day",2143.6 IU/L
same,ALT,"72 h, time 3 day",51.6 IU/L
same,AST,"72 h, time 3 day",82 IU/L
same,BUN,"72 h, time 3 day",17 mg/dL
same,CRE,"72 h, time 3 day",0.1 mg/dL
same,Ca,"72 h, time 3 day",11 mg/dL
same,Cl,"72 h, time 3 day",107.8 meq/L
same,DBIL,"72 h, time 3 day",0 mg/dL
same,GLC,"72 h, time 3 day",191.4 mg/dL
same,IP,"72 h, time 3 day",6.5 mg/dL
same,K,"72 h, time 3 day",4.3 meq/L
same,LDH,"72 h, time 3 day",262.6 IU/L
same,Na,"72 h, time 3 day",142.2 meq/L
same,PL,"72 h, time 3 day",153.6 mg/dL
same,RALB,"72 h, time 3 day",3.2 g/dL
same,TBIL,"72 h, time 3 day",0.016 mg/dL
same,TC,"72 h, time 3 day",78.2 mg/dL
same,TG,"72 h, time 3 day",112.6 mg/dL
same,TP,"72 h, time 3 day",5.6 g/dL
same,gamma-GTP,"72 h, time 3 day",1 IU/L
same,TERMINAL_BW,"[…], time 7 day",257.9 g
same,TERMINAL_BW,"[…], time 14 day",293.8 g
same,TERMINAL_BW,"[…], time 28 day",358.5 g
same,APTT,"[…], time 7 day",23.3 s
same,Bas,"[…], time 7 day",0%
same,Eos,"[…], time 7 day",0.8%
same,Fbg,"[…], time 7 day",298.4 mg/dL
same,Hb,"[…], time 7 day",13.6 g/dL
same,Ht,"[…], time 7 day",39.2%
same,Lym,"[…], time 7 day",79.4%
same,MCH,"[…], time 7 day",21.2 pg
same,MCHC,"[…], time 7 day",34.8%
same,MCV,"[…], time 7 day",60.9 fL
same,Mono,"[…], time 7 day",2.4%
same,Neu,"[…], time 7 day",16.8%
same,PT,"[…], time 7 day",15.9 s
same,Plat,"[…], time 7 day",111.8 x10_4/uL
same,RBC,"[…], time 7 day",644 x10_4/ul
same,Ret,"[…], time 7 day",5.1%
same,WBC,"[…], time 7 day",94.2 x10_2/uL
same,APTT,"[…], time 14 day",23.8 s
same,Bas,"[…], time 14 day",0%
same,Eos,"[…], time 14 day",0.8%
same,Fbg,"[…], time 14 day",295.4 mg/dL
same,Hb,"[…], time 14 day",14.4 g/dL
same,Ht,"[…], time 14 day",40.6%
same,Lym,"[…], time 14 day",83.6%
same,MCH,"[…], time 14 day",20.6 pg
same,MCHC,"[…], time 14 day",35.4%
same,MCV,"[…], time 14 day",58.2 fL
same,Mono,"[…], time 14 day",1.8%
same,Neu,"[…], time 14 day",13.2%
same,PT,"[…], time 14 day",16.2 s
same,Plat,"[…], time 14 day",107.1 x10_4/uL
same,RBC,"[…], time 14 day",698 x10_4/ul
same,Ret,"[…], time 14 day",3.9%
same,WBC,"[…], time 14 day",114.6 x10_2/uL
same,APTT,"[…], time 28 day",26.8 s
same,Bas,"[…], time 28 day",0%
same,Eos,"[…], time 28 day",1%
same,Fbg,"[…], time 28 day",330 mg/dL
same,Hb,"[…], time 28 day",14.9 g/dL
same,Ht,"[…], time 28 day",41.2%
same,Lym,"[…], time 28 day",82.8%
same,MCH,"[…], time 28 day",19.8 pg
same,MCHC,"[…], time 28 day",36.2%
same,MCV,"[…], time 28 day",54.6 fL
same,Mono,"[…], time 28 day",1.6%
same,Neu,"[…], time 28 day",14.6%
same,PT,"[…], time 28 day",15.8 s
same,Plat,"[…], time 28 day",102.3 x10_4/uL
same,RBC,"[…], time 28 day",756 x10_4/ul
same,Ret,"[…], time 28 day",2.4%
same,WBC,"[…], time 28 day",86 x10_2/uL
same,KIDNEY_L,"[…], time 7 day",1.1 g
same,KIDNEY_R,"[…], time 7 day",1.1 g
same,KIDNEY_TOTAL,"[…], time 7 day",2.2 g
same,KIDNEY_L,"[…], time 14 day",1.1 g
same,KIDNEY_R,"[…], time 14 day",1.2 g
same,KIDNEY_TOTAL,"[…], time 14 day",2.3 g
same,KIDNEY_L,"[…], time 28 day",1.3 g
same,KIDNEY_R,"[…], time 28 day",1.3 g
same,KIDNEY_TOTAL,"[…], time 28 day",2.6 g
same,LIVER,"[…], time 7 day",12.5 g
same,LIVER,"[…], time 14 day",12.9 g
same,LIVER,"[…], time 28 day",14.9 g
same,A/G,"[…], time 7 day",1.3
same,ALP,"[…], time 7 day",1621.4 IU/L
same,ALT,"[…], time 7 day",41.6 IU/L
same,AST,"[…], time 7 day",68.2 IU/L
same,BUN,"[…], time 7 day",17.2 mg/dL
same,CRE,"[…], time 7 day",0.2 mg/dL
same,Ca,"[…], time 7 day",10.7 mg/dL
same,Cl,"[…], time 7 day",107.2 meq/L
same,DBIL,"[…], time 7 day",0 mg/dL
same,GLC,"[…], time 7 day",193.2 mg/dL
same,IP,"[…], time 7 day",6.2 mg/dL
same,K,"[…], time 7 day",4.1 meq/L
same,LDH,"[…], time 7 day",216 IU/L
same,Na,"[…], time 7 day",142.4 meq/L
same,PL,"[…], time 7 day",157.4 mg/dL
same,RALB,"[…], time 7 day",3.2 g/dL
same,TBIL,"[…], time 7 day",0.006 mg/dL
same,TC,"[…], time 7 day",76.4 mg/dL
same,TG,"[…], time 7 day",160.4 mg/dL
same,TP,"[…], time 7 day",5.7 g/dL
same,gamma-GTP,"[…], time 7 day",1.4 IU/L
same,A/G,"[…], time 14 day",1.2
same,ALP,"[…], time 14 day",1426.6 IU/L
same,ALT,"[…], time 14 day",42.8 IU/L
same,AST,"[…], time 14 day",70.6 IU/L
same,BUN,"[…], time 14 day",17.6 mg/dL
same,CRE,"[…], time 14 day",0.2 mg/dL
same,Ca,"[…], time 14 day",10.6 mg/dL
same,Cl,"[…], time 14 day",108.4 meq/L
same,DBIL,"[…], time 14 day",0 mg/dL
same,GLC,"[…], time 14 day",195 mg/dL
same,IP,"[…], time 14 day",5.7 mg/dL
same,K,"[…], time 14 day",4 meq/L
same,LDH,"[…], time 14 day",181.2 IU/L
same,Na,"[…], time 14 day",143.2 meq/L
same,PL,"[…], time 14 day",150 mg/dL
same,RALB,"[…], time 14 day",3.1 g/dL
same,TBIL,"[…], time 14 day",0.004 mg/dL
same,TC,"[…], time 14 day",70.2 mg/dL
same,TG,"[…], time 14 day",156.8 mg/dL
same,TP,"[…], time 14 day",5.7 g/dL
same,gamma-GTP,"[…], time 14 day",0.8 IU/L
same,A/G,"[…], time 28 day",1.2
same,ALP,"[…], time 28 day",1127 IU/L
same,ALT,"[…], time 28 day",46.2 IU/L
same,AST,"[…], time 28 day",69.4 IU/L
same,BUN,"[…], time 28 day",15.2 mg/dL
same,CRE,"[…], time 28 day",0.2 mg/dL
same,Ca,"[…], time 28 day",10.4 mg/dL
same,Cl,"[…], time 28 day",108.4 meq/L
same,DBIL,"[…], time 28 day",0 mg/dL
same,GLC,"[…], time 28 day",182.8 mg/dL
same,IP,"[…], time 28 day",5.8 mg/dL
same,K,"[…], time 28 day",4.1 meq/L
same,LDH,"[…], time 28 day",167.2 IU/L
same,Na,"[…], time 28 day",142 meq/L
same,PL,"[…], time 28 day",140.2 mg/dL
same,RALB,"[…], time 28 day",3.2 g/dL
same,TBIL,"[…], time 28 day",0.016 mg/dL
same,TC,"[…], time 28 day",67.8 mg/dL
same,TG,"[…], time 28 day",168.2 mg/dL
same,TP,"[…], time 28 day",6 g/dL
same,gamma-GTP,"[…], time 28 day",1.4 IU/L
